Assay results published in ChEMBL document CHEMBL1201862, “PubChem BioAssay data set” (2004).
Activity calls are given as the source filed them.

Tests used:
[1] = target: Intestinal-type alkaline phosphatase (Mus musculus, UniProt P24822); assay: PubChem AID 488785; type: functional
[2] = target: T1, Alkaline phosphatase, tissue-nonspecific isozyme (Homo sapiens, UniProt P05186); assay: TNAP enzyme inhibition by screening hits, dose response, selectivity assay for mouse IAP inhibitor project, biochemical, human TNAP, uHTS hits (AID 488906); type: functional
T1 sequence (P05186 whole entry): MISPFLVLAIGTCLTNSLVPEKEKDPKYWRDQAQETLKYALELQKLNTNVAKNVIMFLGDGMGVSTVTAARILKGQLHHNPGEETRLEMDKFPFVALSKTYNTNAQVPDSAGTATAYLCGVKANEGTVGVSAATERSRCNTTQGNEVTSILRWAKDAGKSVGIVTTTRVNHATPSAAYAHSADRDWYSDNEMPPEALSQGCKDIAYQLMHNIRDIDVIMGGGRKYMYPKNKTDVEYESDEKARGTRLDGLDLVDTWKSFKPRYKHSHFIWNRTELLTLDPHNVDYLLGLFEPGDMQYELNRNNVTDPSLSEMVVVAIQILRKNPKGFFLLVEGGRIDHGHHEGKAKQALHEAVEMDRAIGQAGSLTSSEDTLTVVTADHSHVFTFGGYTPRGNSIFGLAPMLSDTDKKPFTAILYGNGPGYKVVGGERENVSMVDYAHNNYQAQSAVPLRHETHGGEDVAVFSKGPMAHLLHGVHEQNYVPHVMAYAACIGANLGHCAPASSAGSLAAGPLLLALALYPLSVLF

[3] = target: Intestinal-type alkaline phosphatase (Homo sapiens, UniProt P09923); assay: inhibition of human intestinal alkaline phosphatase – biochemical, dose response (AID 488876); type: functional
[4] = HepG2 cell cytotoxicity, dose response, cytotoxicity control, plate reader, cherry-pick, antagonist series (AID 743416); type: functional, cell-based
[5] = MC4R antagonists, dose response, counter-screen for LGR2 antagonist project, cell-based, plate reader, cherry pick (AID 743444); type: functional;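 further: transfected HEK 293 cells stimulated with alpha-MSH peptide; potency of inhibitors of the alpha-MSH evoked signal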
[6] = target: T2, Endoribonuclease toxin MazF (Escherichia coli K-12, UniProt P0AE70); assay: MazF toxin RNase activators, dose response, biochemical, fluorescence, single-stranded RNA substrate, uHTS hits (AID 588481); type: functional
T2 sequence (P0AE70 whole entry): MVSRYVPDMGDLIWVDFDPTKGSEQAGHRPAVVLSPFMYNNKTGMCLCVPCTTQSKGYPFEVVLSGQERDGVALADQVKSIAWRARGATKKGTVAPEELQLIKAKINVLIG

[7] = HEK293 cell cytotoxicity, dose response, cytotoxicity control, plate reader, cherry-picked samples (AID 743446); type: functional, cell-based
[8] = target: T3, Ubiquitin-conjugating enzyme E2 N (Homo sapiens, UniProt P61088); type: functional;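 further: Dose-response confirmation in a TR-FRET assay detecting UBC13-driven polyubiquitin chain formation, inhibition measured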
T3 sequence (P61088 whole entry): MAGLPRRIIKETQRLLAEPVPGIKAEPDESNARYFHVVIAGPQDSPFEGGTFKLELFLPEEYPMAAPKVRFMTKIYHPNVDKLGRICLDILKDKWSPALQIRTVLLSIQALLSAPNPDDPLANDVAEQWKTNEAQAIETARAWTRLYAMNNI

[9] = Luminescence Cell-Based Dose Retest to Confirm Inhibitors of Cancer Stem Cells. [Related pubchem assays (depositor defined):AID2717, AID2721]; type: functional; details: Homo sapiens
[10] = target: T2, Endoribonuclease toxin MazF; assay: fluorescent RNA oligo signal without MazF, dose response, counter-screen for MazEF activator project, biochemical, fluorescence, single-stranded RNase substrate (AID 588502); type: functional
[11] = LGR2 antagonists, dose response, cell-based, HEK293, CRE-luciferase reporter, cherry pick, set 2 (AID 743343); type: functional;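 further: transfected cells were stimulated with diluted bursicon conditioned medium after compound addition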
[12] = A549 cell cytotoxicity, dose response, cytotoxicity control, plate reader, cherry-pick, antagonist series (AID 743412); type: functional, cell-based
[13] = target: T4, Lysine-specific demethylase 4C (Homo sapiens, UniProt Q9H3R0); assay: GASC-1 (JMJD2C) histone demethylase inhibitors, dose response, biochemical, DELFIA europium, cherry-picked samples (AID 488835); type: functional
T4 sequence (Q9H3R0 whole entry): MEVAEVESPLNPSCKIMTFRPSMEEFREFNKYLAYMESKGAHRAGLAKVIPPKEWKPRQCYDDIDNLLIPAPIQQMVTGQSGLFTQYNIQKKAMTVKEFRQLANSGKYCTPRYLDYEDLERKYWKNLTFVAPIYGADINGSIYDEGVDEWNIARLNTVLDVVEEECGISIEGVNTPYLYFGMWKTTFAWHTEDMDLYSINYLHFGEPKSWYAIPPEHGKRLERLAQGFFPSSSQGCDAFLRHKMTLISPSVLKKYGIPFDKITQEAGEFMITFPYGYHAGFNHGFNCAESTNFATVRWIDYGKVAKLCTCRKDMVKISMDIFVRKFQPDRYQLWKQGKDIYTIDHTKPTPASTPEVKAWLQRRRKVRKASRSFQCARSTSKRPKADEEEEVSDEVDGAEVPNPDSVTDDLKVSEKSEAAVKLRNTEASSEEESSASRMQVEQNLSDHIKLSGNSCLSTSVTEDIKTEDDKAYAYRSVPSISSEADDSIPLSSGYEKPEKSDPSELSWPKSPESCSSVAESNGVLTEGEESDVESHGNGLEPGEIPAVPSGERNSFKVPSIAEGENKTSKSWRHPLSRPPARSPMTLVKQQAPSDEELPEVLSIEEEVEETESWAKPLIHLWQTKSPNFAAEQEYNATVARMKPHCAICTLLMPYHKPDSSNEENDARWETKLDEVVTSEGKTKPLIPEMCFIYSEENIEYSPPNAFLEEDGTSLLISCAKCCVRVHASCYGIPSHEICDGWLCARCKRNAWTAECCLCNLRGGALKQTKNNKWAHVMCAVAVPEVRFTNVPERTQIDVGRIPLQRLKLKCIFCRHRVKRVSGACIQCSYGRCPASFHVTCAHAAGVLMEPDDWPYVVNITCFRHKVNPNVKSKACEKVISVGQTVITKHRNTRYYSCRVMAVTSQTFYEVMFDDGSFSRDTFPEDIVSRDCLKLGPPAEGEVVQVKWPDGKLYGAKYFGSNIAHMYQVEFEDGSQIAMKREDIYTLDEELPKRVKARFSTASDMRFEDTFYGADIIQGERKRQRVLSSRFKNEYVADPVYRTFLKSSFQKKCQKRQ

[14] = cytotoxicity in HMLE control line with eGFP shRNA, dose response, counter-screen for HMLE_sh_ECad selective toxicity project, cell-based, HMLE_sh_eGFP, luminescence (AID 463074); type: functional, Homo sapiens;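 further: HMLE human mammary epithelial cells expressing control shRNA against eGFP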
[15] = inhibitors of intracellular T. cruzi replication, confirmation, NIH3T3 host cells, beta-gal luminescence (AID 2044); type: functional, cell-based;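 further: intracellular parasites grown in NIH/3T3 mouse fibroblasts as host cells; luminescent beta-galactosidase reporter signal from transgenic T. cruzi replicating inside host cells; inhibitors lower the luminescence signal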
[16] = cytotoxicity toward NIH3T3 fibroblasts, dose response, counter-screen, cell-based, ATP luminescence, mouse fibroblasts (AID 2010); type: functional;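 further: cells exposed to compound for about 90 hours before reading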
H9c2 = assay: cells; type: functional, cell-based; details: Rattus norvegicus, H9c2, Myocardium;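 further: confirmatory concentration-response retest of ultra-high-throughput screening hits for modulation of myocardial damage; cell death induced by hydrogen peroxide oxidative stress; compound pretreatment for 60 min then peroxide exposure for 2 h; potency is for protecting the cells against peroxide damage rather than for killing them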
SUMO E1/E2 = SUMO E1/E2 (Homo sapiens, UniProt P63279+Q9UBE0+Q9UBT2); assay: SAR analysis of SUMOylation using HTRF in an in-Vitro dose response assay. [Related pubchem assays (depositor defined):AID2006, AID2011, AID2018, AID2069, AID2658]; type: functional
Hexokinase-1 = target: T5, Hexokinase-1 (Homo sapiens, UniProt P19367); assay: hexokinase 1 activators, dose response, selectivity assay for HKDC1 activator project, biochemical (AID 504762); type: functional
T5 sequence (P19367 whole entry): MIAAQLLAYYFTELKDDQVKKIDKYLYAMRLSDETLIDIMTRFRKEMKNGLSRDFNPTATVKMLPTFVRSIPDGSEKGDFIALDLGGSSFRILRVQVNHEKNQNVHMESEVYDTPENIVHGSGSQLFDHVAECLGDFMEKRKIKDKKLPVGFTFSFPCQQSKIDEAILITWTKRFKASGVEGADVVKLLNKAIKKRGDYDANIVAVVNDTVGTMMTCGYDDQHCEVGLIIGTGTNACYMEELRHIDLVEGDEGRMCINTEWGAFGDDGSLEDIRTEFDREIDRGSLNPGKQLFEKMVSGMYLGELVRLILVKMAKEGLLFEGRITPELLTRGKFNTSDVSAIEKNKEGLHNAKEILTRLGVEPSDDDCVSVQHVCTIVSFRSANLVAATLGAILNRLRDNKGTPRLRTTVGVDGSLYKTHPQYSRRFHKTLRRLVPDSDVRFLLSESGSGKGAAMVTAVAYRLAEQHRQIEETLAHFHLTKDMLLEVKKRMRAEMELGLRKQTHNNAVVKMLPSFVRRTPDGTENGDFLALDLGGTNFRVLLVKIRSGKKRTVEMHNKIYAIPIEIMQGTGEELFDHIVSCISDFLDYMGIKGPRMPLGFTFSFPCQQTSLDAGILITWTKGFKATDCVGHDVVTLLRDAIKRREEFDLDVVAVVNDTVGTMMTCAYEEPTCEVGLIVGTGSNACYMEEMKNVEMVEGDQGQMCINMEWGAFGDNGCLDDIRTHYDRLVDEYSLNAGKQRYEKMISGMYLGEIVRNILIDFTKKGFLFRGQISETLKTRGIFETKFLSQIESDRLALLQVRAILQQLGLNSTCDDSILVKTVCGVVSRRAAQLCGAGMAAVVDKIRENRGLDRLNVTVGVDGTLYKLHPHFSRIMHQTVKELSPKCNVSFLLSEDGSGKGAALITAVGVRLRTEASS

Hexokinase HKDC1 = target: T6, Hexokinase HKDC1 (Homo sapiens, UniProt Q2TB90); assay: HKDC1 hexokinase activators, dose response, biochemical, W721R variant (AID 504730); type: functional
T6 sequence (Q2TB90 whole entry): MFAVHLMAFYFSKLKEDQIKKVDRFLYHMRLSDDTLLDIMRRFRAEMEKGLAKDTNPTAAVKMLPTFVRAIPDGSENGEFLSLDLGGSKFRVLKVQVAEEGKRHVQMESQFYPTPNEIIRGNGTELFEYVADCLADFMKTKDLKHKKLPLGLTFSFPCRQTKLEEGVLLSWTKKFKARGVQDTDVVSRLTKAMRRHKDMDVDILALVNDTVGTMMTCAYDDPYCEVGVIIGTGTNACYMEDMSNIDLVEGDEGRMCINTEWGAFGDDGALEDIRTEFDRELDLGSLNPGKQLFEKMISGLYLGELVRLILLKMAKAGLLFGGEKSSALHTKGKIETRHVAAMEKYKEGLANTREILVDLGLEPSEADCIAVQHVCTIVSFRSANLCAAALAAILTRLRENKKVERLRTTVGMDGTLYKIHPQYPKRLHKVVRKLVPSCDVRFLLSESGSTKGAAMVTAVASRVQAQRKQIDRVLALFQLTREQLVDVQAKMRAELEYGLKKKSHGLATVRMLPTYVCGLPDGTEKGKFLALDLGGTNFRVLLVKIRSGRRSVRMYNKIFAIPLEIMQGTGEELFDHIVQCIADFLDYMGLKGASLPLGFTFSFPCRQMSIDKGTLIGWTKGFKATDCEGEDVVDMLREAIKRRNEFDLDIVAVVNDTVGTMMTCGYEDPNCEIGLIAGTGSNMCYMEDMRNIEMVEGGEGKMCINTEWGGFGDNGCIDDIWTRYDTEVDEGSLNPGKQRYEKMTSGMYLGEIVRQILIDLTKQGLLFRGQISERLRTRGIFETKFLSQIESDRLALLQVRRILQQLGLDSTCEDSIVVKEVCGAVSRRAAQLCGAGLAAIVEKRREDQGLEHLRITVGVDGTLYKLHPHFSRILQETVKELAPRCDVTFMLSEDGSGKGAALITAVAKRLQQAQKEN

Nonstructural protein 1 = Nonstructural protein 1 (Influenza A virus, UniProt Q194T2); type: functional, Influenza A virus (A/California/07/2009(H1N1))
[17] = target: Heat shock protein HSP 90-alpha (Homo sapiens, UniProt P07900); type: functional, organism-based

Sequence of Intestinal-type alkaline phosphatase (Mus musculus, UniProt P24822) (P24822 whole entry): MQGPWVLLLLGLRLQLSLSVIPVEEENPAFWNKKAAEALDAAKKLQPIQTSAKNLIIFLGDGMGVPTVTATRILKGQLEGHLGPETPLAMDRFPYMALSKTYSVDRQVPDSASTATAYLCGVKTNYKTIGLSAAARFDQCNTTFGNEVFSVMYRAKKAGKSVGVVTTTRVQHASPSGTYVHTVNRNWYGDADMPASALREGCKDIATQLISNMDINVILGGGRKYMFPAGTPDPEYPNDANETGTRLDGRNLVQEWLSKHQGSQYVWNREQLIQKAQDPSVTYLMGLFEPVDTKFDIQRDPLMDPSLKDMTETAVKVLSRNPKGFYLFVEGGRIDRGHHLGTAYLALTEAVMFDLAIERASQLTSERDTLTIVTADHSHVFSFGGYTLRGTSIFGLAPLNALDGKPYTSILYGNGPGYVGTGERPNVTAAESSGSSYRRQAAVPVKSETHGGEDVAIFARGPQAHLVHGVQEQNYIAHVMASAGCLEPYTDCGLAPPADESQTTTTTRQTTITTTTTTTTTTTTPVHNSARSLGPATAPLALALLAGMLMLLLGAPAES
Sequence of Intestinal-type alkaline phosphatase (Homo sapiens, UniProt P09923) (P09923 whole entry): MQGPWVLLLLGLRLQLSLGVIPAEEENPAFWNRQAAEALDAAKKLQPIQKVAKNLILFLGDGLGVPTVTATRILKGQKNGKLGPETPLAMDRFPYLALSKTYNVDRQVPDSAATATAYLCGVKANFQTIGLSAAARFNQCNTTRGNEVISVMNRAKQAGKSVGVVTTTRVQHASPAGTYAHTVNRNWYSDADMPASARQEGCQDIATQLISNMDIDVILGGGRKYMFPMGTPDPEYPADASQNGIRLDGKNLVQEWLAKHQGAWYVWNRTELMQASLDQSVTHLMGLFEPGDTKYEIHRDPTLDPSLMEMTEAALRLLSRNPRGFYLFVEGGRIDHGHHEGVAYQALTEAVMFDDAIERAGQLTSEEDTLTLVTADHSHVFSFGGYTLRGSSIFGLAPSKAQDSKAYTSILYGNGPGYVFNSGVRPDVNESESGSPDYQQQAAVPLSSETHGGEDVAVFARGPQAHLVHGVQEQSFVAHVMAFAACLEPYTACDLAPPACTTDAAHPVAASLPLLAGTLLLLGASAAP
Sequence of SUMO E1/E2 (Q9UBE0 whole entry): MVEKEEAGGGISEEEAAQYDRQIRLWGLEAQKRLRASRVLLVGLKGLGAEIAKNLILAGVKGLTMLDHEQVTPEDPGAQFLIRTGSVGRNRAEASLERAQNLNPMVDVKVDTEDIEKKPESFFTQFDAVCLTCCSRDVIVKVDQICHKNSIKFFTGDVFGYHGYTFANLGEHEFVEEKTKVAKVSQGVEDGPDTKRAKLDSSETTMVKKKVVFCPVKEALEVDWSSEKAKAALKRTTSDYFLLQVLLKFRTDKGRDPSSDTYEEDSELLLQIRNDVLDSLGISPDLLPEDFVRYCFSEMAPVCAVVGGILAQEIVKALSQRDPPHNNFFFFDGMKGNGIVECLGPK
Sequence of SUMO E1/E2 (Q9UBT2 whole entry): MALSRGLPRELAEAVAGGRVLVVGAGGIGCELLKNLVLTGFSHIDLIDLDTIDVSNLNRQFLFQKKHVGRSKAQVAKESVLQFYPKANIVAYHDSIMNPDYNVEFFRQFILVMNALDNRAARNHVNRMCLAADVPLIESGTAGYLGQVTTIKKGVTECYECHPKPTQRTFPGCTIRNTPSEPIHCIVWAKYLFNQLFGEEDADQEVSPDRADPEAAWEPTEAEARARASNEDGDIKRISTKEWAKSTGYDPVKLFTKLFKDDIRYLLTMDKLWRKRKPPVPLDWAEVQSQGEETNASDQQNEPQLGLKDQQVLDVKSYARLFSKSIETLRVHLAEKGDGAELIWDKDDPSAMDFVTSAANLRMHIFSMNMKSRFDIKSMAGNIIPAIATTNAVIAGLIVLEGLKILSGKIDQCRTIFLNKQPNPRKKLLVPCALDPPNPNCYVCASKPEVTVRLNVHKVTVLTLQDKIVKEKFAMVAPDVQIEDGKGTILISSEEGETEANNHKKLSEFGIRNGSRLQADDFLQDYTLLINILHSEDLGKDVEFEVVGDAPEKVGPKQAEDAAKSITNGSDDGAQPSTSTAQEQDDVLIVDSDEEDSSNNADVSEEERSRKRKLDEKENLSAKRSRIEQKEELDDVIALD
Sequence of SUMO E1/E2 (P63279 whole entry): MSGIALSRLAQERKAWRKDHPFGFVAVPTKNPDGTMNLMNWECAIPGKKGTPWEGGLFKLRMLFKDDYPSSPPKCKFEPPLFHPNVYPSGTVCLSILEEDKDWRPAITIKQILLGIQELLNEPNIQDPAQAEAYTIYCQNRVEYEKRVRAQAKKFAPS
Sequence of Nonstructural protein 1 (Q194T2 whole entry): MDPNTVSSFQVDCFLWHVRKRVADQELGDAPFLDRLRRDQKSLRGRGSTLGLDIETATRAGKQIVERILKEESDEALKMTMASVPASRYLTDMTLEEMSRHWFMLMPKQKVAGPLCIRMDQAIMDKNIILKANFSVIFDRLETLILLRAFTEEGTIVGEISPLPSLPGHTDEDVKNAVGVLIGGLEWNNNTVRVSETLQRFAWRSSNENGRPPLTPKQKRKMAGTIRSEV

Cc1ccc(NC(=S)NCc2ccccc2)cc1S(=O)(=O)N1CCCCC1
IC50 [1]: 1.4 µM (active) | IC50 [2]: > 100 µM (inactive) | IC50 [3]: > 100 µM (inactive)

O=C(Nc1ccc(Cl)c(C(F)(F)F)c1)NC1CC2CCCC(C1)N2Cc1ccccc1 (stereo not drawn)
AC50 [4]: 12.6 µM (active) | AC50 [5]: 33.5 µM (active) | IC50 [1]: 11.2 µM (active) | EC50 [6]: > 99 µM (inactive) | AC50 [7]: 29.6 µM (active) | IC50 [8]: > 20 µM (inactive) | AC50 [9]: 6.55 µM (active) | IC50 [2]: > 100 µM (inactive) | EC50 [10]: > 99 µM (inactive) | AC50 [11]: 39 µM (active) | AC50 [12]: 11.4 µM (active) | IC50 [3]: > 100 µM (inactive)

CN1C(=O)C(=Cc2ccc(N3CCCCCC3)cc2)C(=O)N(C)C1=O
AC50 [13]: 13.1 µM (active)

COc1ccc(C(=O)CCN2CCN(c3ccccc3F)CC2)cc1
AC50 [14]: 35.3 µM (active) | EC50 [15]: 2.19 µM (active) | EC50 [16]: 7.83 µM (active) | AC50 [9]: 17.2 µM (active)

COc1ccc(-c2nn3c(-c4ccco4)nnc3s2)cc1OC
IC50 (H9c2): 11.2 µM (active) | AC50 [13]: 10.3 µM (active)

C/C(=N\OCc1nc2ccccc2c(=O)n1/N=C/c1cc(Br)ccc1O)c1ccccc1
IC50 (SUMO E1/E2): 14.7 µM (active)

CC(=NNC(=S)N1CC2CCC(CC2)C1)c1ccncn1
EC50 (Hexokinase-1): > 80 µM (inactive) | EC50 (Hexokinase HKDC1): 13.3 µM (active) | IC50 (Nonstructural protein 1): 3.98 µM (active) | AC50 [17]: 3.03 µM (active)

O=C(O)c1ccc2c(c1)C1C=CCC1C(c1ccccc1)N2 (stereo not drawn)
IC50 (SUMO E1/E2): > 100 µM (inactive)
